Active and inactive are the calls of the source.
Experiments:
[1] = P. falciparum 3D7-ScDHODH growth inhibitors, dose response, SYBR Green, dry powder samples (AID 1159570); assay type: functional, cell-based;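 note: parasite growth measured after 72 hours of compound exposure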
[2] = P. falciparum ATP4 D1247Y mutant growth inhibitors, dose response, NITD609-resistant line, SYBR Green, dry powder (AID 1159571); assay type: functional, cell-based;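 note: parasites synchronized at ring stage by sorbitol before testing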
[3] = HepG2 cell cytotoxicity, dose response, cytotoxicity control, plate reader, dry powder samples (AID 1159569); assay type: functional, cell-based;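 note: inhibitor potency with signal falling toward the positive control level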
[4] = P. falciparum Dd2 growth inhibitors, dose response, SYBR Green, cherry-picked samples (AID 1159567); assay type: functional, cell-based
[5] = P. falciparum Dd2 growth inhibitors, dose response, SYBR Green, dry powder samples (AID 1159566); assay type: functional, cell-based;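 note: potency for growth inhibition with lower SYBR green DNA signal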
[6] = Plasmodium falciparum Dd2 Sybr green parasite growth Measured in Cell-Based and Microorganism Combination System Using Plate Reader - 2153-01_Inhibitor_Dose_DryPowder_Activity_Set3.; assay type: functional
[7] = target: Intestinal-type alkaline phosphatase (Mus musculus, UniProt P24822); test: PubChem AID 488785; assay type: functional
Sequence of Intestinal-type alkaline phosphatase (Mus musculus, UniProt P24822) (P24822 whole entry): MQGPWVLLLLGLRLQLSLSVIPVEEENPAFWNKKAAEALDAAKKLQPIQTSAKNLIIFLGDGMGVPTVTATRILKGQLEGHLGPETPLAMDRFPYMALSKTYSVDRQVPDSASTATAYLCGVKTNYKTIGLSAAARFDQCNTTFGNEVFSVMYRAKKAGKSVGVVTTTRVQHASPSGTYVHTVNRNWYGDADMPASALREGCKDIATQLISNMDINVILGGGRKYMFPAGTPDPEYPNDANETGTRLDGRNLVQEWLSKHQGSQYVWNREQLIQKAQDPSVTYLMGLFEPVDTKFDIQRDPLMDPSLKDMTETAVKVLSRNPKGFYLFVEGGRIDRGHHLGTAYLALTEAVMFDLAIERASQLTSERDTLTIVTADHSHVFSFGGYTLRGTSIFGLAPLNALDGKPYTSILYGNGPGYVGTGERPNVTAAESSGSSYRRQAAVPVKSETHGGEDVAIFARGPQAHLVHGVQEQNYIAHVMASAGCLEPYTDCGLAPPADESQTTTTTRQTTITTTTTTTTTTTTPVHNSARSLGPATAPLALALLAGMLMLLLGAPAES

[8] = target: Intestinal-type alkaline phosphatase (Homo sapiens, UniProt P09923); test: inhibition of human intestinal alkaline phosphatase – biochemical, dose response (AID 488876); assay type: functional
[9] = target: T1, Alkaline phosphatase, tissue-nonspecific isozyme (Homo sapiens, UniProt P05186); test: TNAP enzyme inhibition by screening hits, dose response, selectivity assay for mouse IAP inhibitor project, biochemical, human TNAP, uHTS hits (AID 488906); assay type: functional
T1 sequence (P05186 whole entry): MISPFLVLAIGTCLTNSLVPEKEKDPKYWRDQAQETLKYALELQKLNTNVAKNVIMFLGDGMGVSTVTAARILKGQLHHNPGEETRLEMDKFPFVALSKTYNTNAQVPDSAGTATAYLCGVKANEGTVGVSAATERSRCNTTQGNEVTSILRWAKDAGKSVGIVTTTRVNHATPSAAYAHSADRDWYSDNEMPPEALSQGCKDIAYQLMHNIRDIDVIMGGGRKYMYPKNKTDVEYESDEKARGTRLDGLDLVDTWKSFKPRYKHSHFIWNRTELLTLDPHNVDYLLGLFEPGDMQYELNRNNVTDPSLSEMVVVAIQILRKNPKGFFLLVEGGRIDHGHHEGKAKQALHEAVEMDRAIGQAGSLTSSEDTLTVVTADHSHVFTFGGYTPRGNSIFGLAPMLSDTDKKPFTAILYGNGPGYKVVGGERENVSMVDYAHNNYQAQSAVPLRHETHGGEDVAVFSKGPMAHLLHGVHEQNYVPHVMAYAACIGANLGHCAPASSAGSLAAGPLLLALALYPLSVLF

[10] = target: RNA-editing ligase 1, mitochondrial (Trypanosoma brucei brucei, UniProt P86926); test: TbREL1 ligase inhibitors, dose response, biochemical, fluorescence, Trypanosoma brucei (AID 1117295); assay type: functional
Sequence of RNA-editing ligase 1, mitochondrial (P86926 whole entry): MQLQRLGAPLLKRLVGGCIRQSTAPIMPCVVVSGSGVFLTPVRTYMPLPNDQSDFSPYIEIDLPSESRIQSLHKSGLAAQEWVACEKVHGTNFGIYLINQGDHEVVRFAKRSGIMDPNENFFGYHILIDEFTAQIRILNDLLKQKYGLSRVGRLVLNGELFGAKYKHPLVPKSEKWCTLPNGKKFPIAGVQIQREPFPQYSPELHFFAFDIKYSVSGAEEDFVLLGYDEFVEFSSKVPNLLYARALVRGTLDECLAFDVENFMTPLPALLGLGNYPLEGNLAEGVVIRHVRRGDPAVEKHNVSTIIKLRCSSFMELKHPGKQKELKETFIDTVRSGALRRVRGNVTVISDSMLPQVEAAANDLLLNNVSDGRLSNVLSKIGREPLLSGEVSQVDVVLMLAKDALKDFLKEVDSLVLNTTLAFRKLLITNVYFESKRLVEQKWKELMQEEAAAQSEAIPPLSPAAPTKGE

[11] = Glucagon-like peptide 1 release potency, NCI-H716 cell line, dose-response, half-maximal inhibitory concentration (AID 1117344); assay type: functional, cell-based
[12] = Dose-response inhibition of insulin secretion in a rat insulinoma line at 5 mM glucose (AID 1117331); assay type: functional, cell-based; settings: INS-1E
[13] = half-maximal inhibitory concentration for glucagon-like peptide-1 release, STC-1 cell line, dose-response (AID 1117345); assay type: functional, cell-based
[14] = target: T2, Low molecular weight phosphotyrosine protein phosphatase (Homo sapiens, UniProt P24666); test: LMPTP phosphatase inhibitors, colorimetric pNPP readout, dose response, orthogonal assay, biochemical, absorbance, pNPP substrate, LMPTP-A isoform, set 2 (AID 743308); assay type: functional
T2 sequence (P24666 whole entry): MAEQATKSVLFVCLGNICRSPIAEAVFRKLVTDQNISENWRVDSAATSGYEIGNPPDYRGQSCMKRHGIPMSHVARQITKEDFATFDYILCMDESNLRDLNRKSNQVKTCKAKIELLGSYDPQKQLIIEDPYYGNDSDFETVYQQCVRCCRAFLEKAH

[15] = target: T2, Low molecular weight phosphotyrosine protein phosphatase; test: LMPTP phosphatase inhibitors, dose response, biochemical, OMFP substrate, fluorescence intensity, set 2 (AID 743307); assay type: functional
[16] = target: Mitogen-activated protein kinase 10 (Homo sapiens, UniProt P53779); test: Dose response biochemical screening assay for inhibitors of c-Jun N-Terminal Kinase 3 (JNK3). [Related pubchem assays: 746 ]
Sequence of Mitogen-activated protein kinase 10 (P53779 whole entry): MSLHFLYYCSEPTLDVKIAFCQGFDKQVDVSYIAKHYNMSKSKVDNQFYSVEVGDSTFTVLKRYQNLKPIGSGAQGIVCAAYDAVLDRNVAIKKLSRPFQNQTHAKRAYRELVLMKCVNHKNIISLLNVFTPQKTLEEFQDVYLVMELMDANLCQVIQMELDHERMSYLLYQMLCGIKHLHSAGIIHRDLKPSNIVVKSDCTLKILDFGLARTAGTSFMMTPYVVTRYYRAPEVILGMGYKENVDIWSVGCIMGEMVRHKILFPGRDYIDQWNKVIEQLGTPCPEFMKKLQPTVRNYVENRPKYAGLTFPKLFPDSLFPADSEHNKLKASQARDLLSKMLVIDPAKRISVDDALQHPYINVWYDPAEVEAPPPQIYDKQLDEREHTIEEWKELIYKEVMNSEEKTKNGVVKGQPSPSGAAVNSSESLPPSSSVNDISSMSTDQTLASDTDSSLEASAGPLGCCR

[17] = IGROV1 ovarian cancer cell cytotoxicity, dose response, PAX8 inhibitor project, plate reader, dry powder samples (AID 743043); assay type: functional, cell-based; settings: IGROV-1
[18] = cytotoxicity in OV-90 ovarian cancer cells, dose response, PAX8 inhibitor project, cell-based, plate reader, dry powder, SA8 (AID 743149); assay type: functional
[19] = HepG2 cell cytotoxicity, dose response, cytotoxicity control for Shn3 inhibitor project, CellTiter-Glo, cherry-picked (AID 624134); assay type: functional, cell-based
Paired box protein Pax-8 = Paired box protein Pax-8 (Homo sapiens, UniProt Q06710); test: inhibitors of PAX8-driven TPO luciferase reporter, dose response, RMG-I cells, cherry-pick (AID 687027); assay type: functional, cell-based;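 note: luciferase reporter driven by Pax8 target thyroperoxidase promoter measured by SteadyGlo luminescence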
Sequence of Paired box protein Pax-8 (Q06710 whole entry): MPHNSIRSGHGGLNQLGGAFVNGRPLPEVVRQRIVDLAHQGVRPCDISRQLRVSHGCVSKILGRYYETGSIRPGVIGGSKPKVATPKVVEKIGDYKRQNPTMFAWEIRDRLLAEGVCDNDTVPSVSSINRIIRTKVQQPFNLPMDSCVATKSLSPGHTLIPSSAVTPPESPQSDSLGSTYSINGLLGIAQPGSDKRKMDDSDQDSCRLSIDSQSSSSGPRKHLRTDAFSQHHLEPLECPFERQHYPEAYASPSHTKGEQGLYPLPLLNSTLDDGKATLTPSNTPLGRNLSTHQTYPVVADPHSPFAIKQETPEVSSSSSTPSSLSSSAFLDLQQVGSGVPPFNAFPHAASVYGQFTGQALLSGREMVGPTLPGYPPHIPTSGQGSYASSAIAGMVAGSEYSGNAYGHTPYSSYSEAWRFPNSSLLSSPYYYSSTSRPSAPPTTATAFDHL

[20] = cytotoxicity in OVCAR4 cells, dose response, cytotoxicity control for PAX8 inhibitor project, cell-based, plate reader, dry powder, SA11 (AID 743150); assay type: functional; settings: OVCAR-4
[21] = inhibitors of intracellular T. cruzi replication, confirmation, NIH3T3 host cells, beta-gal luminescence (AID 2044); assay type: functional, cell-based;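 note: intracellular parasites grown in NIH/3T3 mouse fibroblasts as host cells; luminescent beta-galactosidase reporter signal from transgenic T. cruzi replicating inside host cells; inhibitors lower the luminescence signal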
[22] = control 3'UTR Renilla luciferase suppression, dose response, counter-screen for Shn3 inhibitor project, cell-based, Clone20-Shn3RL, cherry-picked (AID 624133); assay type: functional
[23] = target: Heat shock protein HSP 90-alpha (Homo sapiens, UniProt P07900); assay type: functional, organism-based
cells [24] = assay type: functional, cell-based
INS1 = test: beta cell apoptosis inhibitors, cytokine rescue, dose response, luminescence, retest (AID 449756); assay type: functional, cell-based; settings: Rattus norvegicus, INS1;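 note: cell death triggered by IL-1 beta plus TNF-alpha plus IFN-gamma mixture; protective hits raise ATP signal compared with cytokine alone wells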
[25] = HEK293T cytotoxicity, dose response, cytotoxicity control for miR-122 modulator project, cell-based, activator set, cherry-pick (AID 720690); assay type: functional;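 note: HEK293T human cells scored for general mammalian cytotoxicity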
[26] = cytotoxicity in COV362 ovarian cancer cells, dose response, cytotoxicity control for PAX8 inhibitor project, cell-based, plate reader, dry powder, SA12 (AID 743144); assay type: functional
[27] = IOSE-T80 ovarian epithelial cell cytotoxicity, dose response, cytotoxicity control for PAX8 inhibitor project, plate reader, dry powder samples (AID 743045); assay type: functional, cell-based
[28] = A2780 ovarian cancer cell cytotoxicity, dose response, cytotoxicity control, plate reader, dry powder samples (AID 743046); assay type: functional, cell-based
[29] = cytotoxicity in COV434 cells, dose response, cytotoxicity control for PAX8 inhibitor project, cell-based, plate reader, dry powder, SA7 (AID 743145); assay type: functional
[30] = PAX5 activity inhibitors, dose response, selectivity assay for PAX8 inhibitor project, cell-based, plate reader, dry powder samples (AID 743047); assay type: functional;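 note: HEK293 cells carrying a Pax5 driven CD19 promoter luciferase reporter; potency of inhibitors that lower reporter luminescence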
[31] = cytotoxicity toward NIH3T3 fibroblasts, dose response, counter-screen, cell-based, ATP luminescence, mouse fibroblasts (AID 2010); assay type: functional;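 note: cells exposed to compound for about 90 hours before reading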
[32] = PAX2 cell-based inhibition, dose response, selectivity assay for PAX8 inhibitor project, plate reader, dry powder samples (AID 743048); assay type: functional;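 note: HEK293 cells carrying a WT1 promoter luciferase reporter driven by expressed Pax2; potency is for inhibition of Pax2 driven reporter signal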
[33] = human group III sPLA2 inhibitors, dose response, biochemical, QFRET, IC50 (AID 743457);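 note: green fluorescence rise as the enzyme cleaves BODIPY PC-A2 in liposomes; potency for inhibition of the enzyme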
[34] = NIH:OVCAR-3 ovarian cancer cell cytotoxicity, dose response, PAX8 inhibitor project, plate reader, dry powder samples (AID 743044); assay type: functional, cell-based
[35] = cytotoxicity dependent on PAX8, dose response, cell-based, plate reader, dry powder (AID 743049); assay type: functional
cells [36] = assay type: functional, cell-based; remark: listed apart in the source
[37] = Shn3 3'UTR reporter inhibitors, dose response, cell-based, Clone20 osteoblasts, firefly luciferase, cherry-picked (AID 624132); assay type: functional;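 note: firefly luciferase luminescence from reporter carrying the Shn3 3'UTR in osteoblasts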
[38] = HEK293T cytotoxicity, dose response, cytotoxicity control for miR-122 modulator project, cell-based, inhibitor set, cherry-pick, set 2 (AID 720697); assay type: functional
[39] = target: T3, Neuropeptides B/W receptor type 1 (Homo sapiens, UniProt P48145); test: Fluorescence-based dose response cell-based high throughput screening assay to identify antagonists of the G-protein coupled receptor 7 (GPR7). [Related pubchem assays: 1952 (Screening assay (GPR7 antagonists).), 1880 (Summary AID.)]; assay type: functional
T3 sequence (P48145 whole entry): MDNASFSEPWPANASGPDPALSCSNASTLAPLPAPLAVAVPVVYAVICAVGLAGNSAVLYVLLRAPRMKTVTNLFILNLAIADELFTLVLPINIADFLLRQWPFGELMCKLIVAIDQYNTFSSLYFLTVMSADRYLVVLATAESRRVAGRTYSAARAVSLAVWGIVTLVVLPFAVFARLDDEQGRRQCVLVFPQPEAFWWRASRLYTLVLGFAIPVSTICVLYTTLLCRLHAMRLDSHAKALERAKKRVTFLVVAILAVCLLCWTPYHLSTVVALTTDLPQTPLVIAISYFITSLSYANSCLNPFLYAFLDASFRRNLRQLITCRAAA

[40] = target: Melanin-concentrating hormone receptor 1 (Homo sapiens, UniProt Q99705); test: Fluorescence-based counterscreen for antagonists of the G-protein coupled receptor 7 (GPR7): cell-based high throughput dose response assay to identify antagonists of the melanin-concentrating hormone receptor 1 (MCHR1).; assay type: functional
Sequence of Melanin-concentrating hormone receptor 1 (Q99705 whole entry): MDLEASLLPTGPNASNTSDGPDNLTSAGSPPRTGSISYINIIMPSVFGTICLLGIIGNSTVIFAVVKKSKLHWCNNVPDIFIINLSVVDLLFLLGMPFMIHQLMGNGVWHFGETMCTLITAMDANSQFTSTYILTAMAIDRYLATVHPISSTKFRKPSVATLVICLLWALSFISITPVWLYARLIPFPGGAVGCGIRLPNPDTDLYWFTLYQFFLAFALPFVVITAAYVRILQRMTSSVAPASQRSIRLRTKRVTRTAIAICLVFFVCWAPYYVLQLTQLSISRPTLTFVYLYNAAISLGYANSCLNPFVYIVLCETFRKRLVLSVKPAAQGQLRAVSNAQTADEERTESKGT

[41] = P. falciparum Dd2 growth inhibitors, dose response, SYBR Green, dry powder samples, set 9 (AID 1159568); assay type: functional, cell-based
Phospholipase D1 = Phospholipase D1 (Homo sapiens, UniProt Q13393); test: PLD1 Cellular Concentration Response Study.; assay type: functional
Sequence of Phospholipase D1 (Q13393 whole entry): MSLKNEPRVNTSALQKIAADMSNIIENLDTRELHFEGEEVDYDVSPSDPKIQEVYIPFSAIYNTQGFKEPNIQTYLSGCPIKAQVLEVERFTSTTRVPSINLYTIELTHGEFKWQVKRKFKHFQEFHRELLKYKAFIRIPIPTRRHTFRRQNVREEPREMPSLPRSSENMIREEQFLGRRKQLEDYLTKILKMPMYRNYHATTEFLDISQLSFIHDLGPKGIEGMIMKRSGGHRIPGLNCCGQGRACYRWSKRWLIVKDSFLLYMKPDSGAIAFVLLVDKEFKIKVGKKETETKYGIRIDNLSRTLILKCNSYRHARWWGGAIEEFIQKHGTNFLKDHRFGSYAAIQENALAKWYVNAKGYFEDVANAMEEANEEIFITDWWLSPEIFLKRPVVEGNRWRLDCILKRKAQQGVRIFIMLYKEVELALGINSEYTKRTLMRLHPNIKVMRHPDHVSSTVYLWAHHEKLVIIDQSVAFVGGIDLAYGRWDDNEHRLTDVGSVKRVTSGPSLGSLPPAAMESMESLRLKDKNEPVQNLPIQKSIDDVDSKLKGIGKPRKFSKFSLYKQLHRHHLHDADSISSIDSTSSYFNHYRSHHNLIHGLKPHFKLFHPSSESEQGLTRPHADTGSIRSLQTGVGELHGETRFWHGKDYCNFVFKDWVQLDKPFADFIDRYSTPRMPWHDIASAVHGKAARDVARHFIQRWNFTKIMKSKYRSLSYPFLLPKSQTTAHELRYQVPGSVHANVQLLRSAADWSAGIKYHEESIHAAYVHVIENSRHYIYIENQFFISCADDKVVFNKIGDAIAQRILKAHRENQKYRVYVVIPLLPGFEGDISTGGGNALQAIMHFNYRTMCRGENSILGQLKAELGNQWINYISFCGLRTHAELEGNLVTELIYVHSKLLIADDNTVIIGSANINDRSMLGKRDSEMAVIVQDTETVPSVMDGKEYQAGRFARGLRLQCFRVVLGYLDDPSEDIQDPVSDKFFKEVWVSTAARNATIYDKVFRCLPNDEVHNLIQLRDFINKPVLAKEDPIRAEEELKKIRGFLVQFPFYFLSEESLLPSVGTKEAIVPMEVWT

Phospholipase D2 = Phospholipase D2 (Homo sapiens, UniProt O14939); test: PLD2 Cellular Concentration Response Study.; assay type: functional
Sequence of Phospholipase D2 (O14939 whole entry): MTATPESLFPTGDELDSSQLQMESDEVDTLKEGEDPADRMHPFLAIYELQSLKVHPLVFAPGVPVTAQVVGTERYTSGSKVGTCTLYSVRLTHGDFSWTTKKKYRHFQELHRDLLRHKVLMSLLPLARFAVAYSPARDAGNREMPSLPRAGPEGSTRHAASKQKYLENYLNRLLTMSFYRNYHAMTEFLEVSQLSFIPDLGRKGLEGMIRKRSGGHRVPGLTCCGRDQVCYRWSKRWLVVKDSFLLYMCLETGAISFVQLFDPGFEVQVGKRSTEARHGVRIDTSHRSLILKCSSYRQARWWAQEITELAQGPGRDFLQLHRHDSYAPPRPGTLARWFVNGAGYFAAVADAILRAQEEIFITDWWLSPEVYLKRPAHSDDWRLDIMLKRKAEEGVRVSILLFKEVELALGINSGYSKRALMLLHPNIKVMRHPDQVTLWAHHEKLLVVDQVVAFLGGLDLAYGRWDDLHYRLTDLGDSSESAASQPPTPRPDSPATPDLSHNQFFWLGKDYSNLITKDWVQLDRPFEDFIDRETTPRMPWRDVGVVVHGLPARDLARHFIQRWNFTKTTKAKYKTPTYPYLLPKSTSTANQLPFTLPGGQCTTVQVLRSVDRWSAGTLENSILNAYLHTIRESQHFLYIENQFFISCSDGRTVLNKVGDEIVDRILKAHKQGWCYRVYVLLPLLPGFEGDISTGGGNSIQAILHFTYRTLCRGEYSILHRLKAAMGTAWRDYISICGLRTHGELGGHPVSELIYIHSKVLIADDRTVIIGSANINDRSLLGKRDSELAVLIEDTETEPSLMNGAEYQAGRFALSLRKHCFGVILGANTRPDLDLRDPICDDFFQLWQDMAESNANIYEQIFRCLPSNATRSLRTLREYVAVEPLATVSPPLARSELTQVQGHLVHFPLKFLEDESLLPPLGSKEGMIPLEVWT

[42] = target: Sphingosine 1-phosphate receptor 2 (Homo sapiens, UniProt O95136); test: Dose Response Cell Based Assay for Agonists of the S1P2 Receptor. [Related pubchem assays: 729, 736, 843 ]; assay type: functional
Sequence of Sphingosine 1-phosphate receptor 2 (O95136 whole entry): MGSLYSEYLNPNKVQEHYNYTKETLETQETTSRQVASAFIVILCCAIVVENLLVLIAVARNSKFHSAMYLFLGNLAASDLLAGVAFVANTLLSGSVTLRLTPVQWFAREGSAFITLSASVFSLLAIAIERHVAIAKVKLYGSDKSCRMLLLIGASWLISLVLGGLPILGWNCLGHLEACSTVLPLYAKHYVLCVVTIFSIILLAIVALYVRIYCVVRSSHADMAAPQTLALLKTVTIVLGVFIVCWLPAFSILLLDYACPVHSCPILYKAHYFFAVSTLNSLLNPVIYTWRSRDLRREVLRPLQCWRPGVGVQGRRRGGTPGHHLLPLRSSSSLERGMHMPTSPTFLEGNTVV

[43] = HeLa 4N DNA content increase, dose response, cell-based, IC50 (AID 1117351); assay type: functional
[44] = HeLa 2N DNA content increase, dose response, cell-based, IC50 (AID 1117349); assay type: functional
[45] = A549 cell cytotoxicity, dose response, cytotoxicity control, CellTiter-Glo luminescence, dry powder, set 5 (AID 743158); assay type: functional, cell-based
[46] = HepG2 cell cytotoxicity, dose response, cytotoxicity control, ATP luminescence, dry powder, set 2 (AID 743129); assay type: functional, cell-based

COc1ccccc1-c1ccc([C@@H]2[C@@H](C#N)N[C@@H]2CO)cc1
AC50 [1]: 3.22 µM (active) | AC50 [2]: 0.946 µM (active) | AC50 [3]: > 100 µM (inactive) | AC50 [4]: 3.02 µM (active) | AC50 [5]: 0.907 µM (active) | AC50 [6]: 6.32 µM (active)

N#Cc1c(SCC(=O)Nc2nccs2)sc2c(O)cc(O)nc12
IC50 [7]: 0.485 µM (active) | IC50 [8]: > 100 µM (inactive) | IC50 [9]: > 100 µM (inactive) | IC50 [10]: 35.5 µM (inactive)

CC(COc1ccccc1)NN (stereo not given) [PHENOXYPROPAZINE]
IC50 [11]: > 40 µM (inactive) | IC50 [12]: > 33.3 µM (inactive) | IC50 [13]: 27.2 µM (inactive)

Fc1ccc2nc(-c3ccccc3)cc(NCCCN3CCCCC3)c2c1
IC50 [14]: 21 µM (inactive) | IC50 [15]: 22 µM (inactive)

COC(=O)c1ccc(Cn2c(O)c(N=O)c3ccccc32)o1
IC50 [16]: > 31 µM (not active)

CCCCC(=O)NC(c1ccccc1OC)c1ccc2cccnc2c1O (stereo not given)
AC50 [17]: 7.55 µM (active) | AC50 [18]: 10.7 µM (active) | AC50 [19]: 2.55 µM (active) | AC50 (Paired box protein Pax-8): 2.44 µM (active) | AC50 [20]: 16.3 µM (active) | EC50 [21]: 0.435 µM (active) | AC50 [22]: 3.18 µM (active) | AC50 [23]: 4.38 µM (active) | EC50 (cells [24]): 6.29 µM (active) | AC50 (INS1): 0.718 µM (active) | AC50 [25]: 3.36 µM (active) | AC50 [26]: 7.92 µM (active) | AC50 [27]: 5.77 µM (active) | AC50 [28]: 8.16 µM (active) | AC50 [29]: 6.89 µM (active) | AC50 [30]: 3.51 µM (active) | EC50 [31]: 1.27 µM (active) | AC50 [32]: 3.22 µM (active) | IC50 [33]: > 122 µM (inactive) | AC50 [34]: 4.87 µM (active) | AC50 [35]: 20.1 µM (active) | EC50 (cells [36]): > 350 µM (not active) | AC50 [37]: 1.19 µM (active) | AC50 [38]: 2.22 µM (active)

O=C(O)c1ccc(NCc2cccc(Br)c2)cc1
IC50 [39]: > 43.8 µM (not active) | IC50 [40]: > 43.8 µM (not active)

C[C@H]1CCCCO[C@H](CN(C)S(=O)(=O)c2ccccc2)[C@@H](C)CN([C@@H](C)CO)C(=O)c2cc(NC(=O)Nc3ccc4c(c3)OCO4)ccc2O1
AC50 [41]: 2.22 µM (active)

O=C(NCCN1CCC2(CC1)C(=O)NCN2Cc1ccccc1)c1ccc2ccccc2c1
IC50 (Phospholipase D1): 8.26 µM (active) | IC50 (Phospholipase D2): 0.89 µM (active)

C(=C\c1ccccc1)/CSc1nnc(-c2ccccc2)n1Cc1ccco1
EC50 [42]: > 50 µM (not active)

CC[C@]1(O)C[C@H]2CN(CCc3c([nH]c4ccccc34)[C@@](C(=O)OC)(c3cc4c(cc3OC)N(C=O)[C@H]3[C@@](O)(C(=O)OC)[C@H](OC(C)=O)[C@]5(CC)C=CCN6CC[C@]43[C@@H]65)C2)C1 [VINCRISTINE]
IC50 [43]: 0.0059 µM (active) | IC50 [44]: 0.0062 µM (active)

CCOC(=O)c1c(-c2ccc(C(C)(C)C)cc2)csc1NC(=O)CN1CCN(C)CC1
AC50 [45]: 21.4 µM (active) | AC50 [46]: 16.4 µM (active)
